Data published in US11369598B2, “Treatment of T-cell mediated diseases” (Ampio Pharmaceuticals, Inc., priority 2003, dated 2022).
Like-named read-outs stand apart in the source and are kept apart here.

Experiments:
[1] = test system: ERK1; test: Hypromatrix Array phosphorylation, TRiPS cell extracts; type: cell-based, human; design: key to ERK1 phosphorylation score: 0 (negative); + to ++++ (positive); + to ++++ (positive); + to ++++ (positive); + to ++++ (positive); details: 30 minutes at 37° C., 0.5 mM DA-DKP or 1:500 dilution of HC 2626
Experimental: (§1) The mechanism of action of DA-DKP and HC 2626 (containing MR-DKP) was investigated. […] After the incubation, the cells were lysed in Cell-Lytic Mammalian Cell Extraction Reagent (Sigma).
(§2) The cell extracts were then separately incubated with duplicate Hypromatrix Arrays for 2 hours at room temperature, followed by two washes following the manufacturer's (Hypromatrix) protocol. The Hypromatrix Array is a nylon membrane blotted with antibodies to the transcription factors listed in Table 1 (custom manufactured by Hypromatrix). An antibody cocktail specific for phosphorylated-tyrosine, phosphorylated-serine and phosphorylated-threonine (Zymed) was added, incubated for 1 hour. Then, an anti-immunoglobulin antibody labeled with biotin was added. After washing the anti-immunoglobulin-biotin away, streptavidin-peroxidase was added, and the arrays given a final wash before adding a peroxidase-reactive luminescent substrate.

[2] = test system: Rap1; test: as above; type: cell-based, human; design: key: 0 (negative); + to ++++ (positive); + to ++++ (positive); + to ++++ (positive); + to ++++ (positive); details: day 18 TRiPS cells + CD3/CD28 beads, 30 minutes at 37° C.; 0.5 mM DA-DKP or 1:500 dilution of HC 2626
Experimental: as §1, §2

[3] = test system: Akt ½; test: as above; type: cell-based, human; design: key: 0 (negative); + to ++++ (positive); + to ++++ (positive); + to ++++ (positive); + to ++++ (positive); details: day 18 TRiPS cells + CD3/CD28 beads, 30 minutes at 37° C.; 0.5 mM DA-DKP or 1:500 dilution of HC 2626
Experimental: as §1, §2

[4] = test system: c-jun; test: as above; type: cell-based, human; design: key: 0 (negative); + to ++++ (positive); + to ++++ (positive); + to ++++ (positive); + to ++++ (positive); details: day 18 TRiPS cells + CD3/CD28 beads, 30 minutes at 37° C.; 0.5 mM DA-DKP or 1:500 dilution of HC 2626
Experimental: as §1, §2

[5] = test system: p38 MAPK; test: as above; type: cell-based, human; design: key: 0 (negative); + to ++++ (positive); + to ++++ (positive); + to ++++ (positive); + to ++++ (positive); details: day 18 TRiPS cells + CD3/CD28 beads, 30 minutes at 37° C.; 0.5 mM DA-DKP or 1:500 dilution of HC 2626
Experimental: as §1, §2

[6] = test system: fyn; test: as above; type: cell-based, human; design: key: 0 (negative); + to ++++ (positive); + to ++++ (positive); + to ++++ (positive); + to ++++ (positive); details: day 18 TRiPS cells + CD3/CD28 beads, 30 minutes at 37° C.; 0.5 mM DA-DKP or 1:500 dilution of HC 2626
Experimental: as §1, §2

[7] = test system: IκB-α; test: as above; type: cell-based, human; design: key: 0 (negative); + to ++++ (positive); + to ++++ (positive); + to ++++ (positive); + to ++++ (positive); details: day 18 TRiPS cells + CD3/CD28 beads, 30 minutes at 37° C.; 0.5 mM DA-DKP or 1:500 dilution of HC 2626
Experimental: as §1, §2

[8] = test system: CBP; test: as above; type: cell-based, human; design: key: 0 (negative); + to ++++ (positive); + to ++++ (positive); + to ++++ (positive); + to ++++ (positive); details: day 18 TRiPS cells + CD3/CD28 beads, 30 minutes at 37° C.; 0.5 mM DA-DKP or 1:500 dilution of HC 2626
Experimental: as §1, §2

[9] = test system: pI3 kinase/p85; test: as above; type: cell-based, human; design: key: 0 (negative); + to ++++ (positive); + to ++++ (positive); + to ++++ (positive); + to ++++ (positive); details: day 18 TRiPS cells + CD3/CD28 beads, 30 minutes at 37° C.; 0.5 mM DA-DKP or 1:500 dilution of HC 2626
Experimental: as §1, §2

[10] = test system: csk; test: as above; type: cell-based, human; design: key: 0 (negative); + to ++++ (positive); + to ++++ (positive); + to ++++ (positive); + to ++++ (positive); details: day 18 TRiPS cells + CD3/CD28 beads, 30 minutes at 37° C.; 0.5 mM DA-DKP or 1:500 dilution of HC 2626
Experimental: as §1, §2

[11] = test system: TriPS cells
[12] = 12 days after stimulation with anti-CD3 OKT3 antibody, 0.5 mM DA-DKP

Substance: Asp-Ala diketopiperazine [DA-DKP]
- ERK1 phosphorylation score ([1]; day 18 TRiPS cells + CD3/CD28 beads): +
- cytokine transcriptional factor activation (ERK1/2) ([1]; day 18 TRiPS cells, CD3/CD28 beads): inhibited
- Rap1 phosphorylation score [2]: ++
- Akt ½ phosphorylation score [3]: +++
- c-jun phosphorylation score [4]: +
- p38 MAPK phosphorylation score [5]: +++
- fyn phosphorylation score [6]: +
- IκB-α phosphorylation score [7]: +
- CBP phosphorylation score [8]: ++
- pI3 kinase/p85 phosphorylation score [9]: +
- csk phosphorylation score [10]: +
- secretion of IL-16 from TriPS cells (FIG. 2) [11, 12]: decreased
- secretion of TNFα from TriPS cells (FIG. 2) [11, 12]: decreased
- release of pre-formed cytokines ([11]; TRiPS cells): inhibited
- effect on TNFα secretion from TriPS cells (FIG. 4) ([11]; early in the stimulation cycle): inhibitory
- effect on TNFα secretion from TriPS cells (FIG. 4) ([11]; later in the cycle (day 14)): stimulatory
